Assay results as given in ChEMBL document CHEMBL5036317, “Identification of Unique Quinazolone Thiazoles as Novel Structural Scaffolds for Potential Gram-Negative Bacterial Conquerors” (J Med Chem, 2021).
Converted amounts (≈) assume the structure as drawn.

Experiments:
Staphylococcus aureus [1] = assay: Antibacterial activity against methicillin-resistant Staphylococcus aureus assessed as inhibition of bacterial growth measured after 24 hrs by two-fold serial dilution method; format: functional
Enterococcus faecalis = assay: Antibacterial activity against Enterococcus faecalis assessed as inhibition of bacterial growth measured after 24 hrs by two-fold serial dilution method; format: functional
Staphylococcus aureus [2] = assay: Antibacterial activity against Staphylococcus aureus assessed as inhibition of bacterial growth measured after 24 hrs by two-fold serial dilution method; format: functional
Staphylococcus aureus [3] = assay: Antibacterial activity against Staphylococcus aureus ATCC 25923 assessed as inhibition of bacterial growth measured after 24 hrs by two-fold serial dilution method; format: functional
Staphylococcus aureus [4] = assay: Antibacterial activity against Staphylococcus aureus ATCC 29213 assessed as inhibition of bacterial growth measured after 24 hrs by two-fold serial dilution method; format: functional
Klebsiella pneumoniae = assay: Antibacterial activity against Klebsiella pneumoniae assessed as inhibition of bacterial growth measured after 24 hrs by two-fold serial dilution method; format: functional
Escherichia coli [5] = assay: Antibacterial activity against Escherichia coli assessed as inhibition of bacterial growth measured after 24 hrs by two-fold serial dilution method; format: functional
Pseudomonas aeruginosa [6] = assay: Antibacterial activity against Pseudomonas aeruginosa assessed as inhibition of bacterial growth measured after 24 hrs by two-fold serial dilution method; format: functional
Acinetobacter baumannii = assay: Antibacterial activity against Acinetobacter baumanii assessed as inhibition of bacterial growth measured after 24 hrs by two-fold serial dilution method; format: functional
Pseudomonas aeruginosa [7] = assay: Antibacterial activity against Pseudomonas aeruginosa ATCC 27853 assessed as inhibition of bacterial growth measured after 24 hrs by two-fold serial dilution method; format: functional
Escherichia coli [8] = assay: Antibacterial activity against Escherichia coli ATCC 25922 assessed as inhibition of bacterial growth measured after 24 hrs by two-fold serial dilution method; format: functional
[9] = Haemolytic activity in human erythrocytes incubated for 2 hrs; format: ADME, cell-based, Erythrocyte

Compound	MIC (Staphylococcus aureus [1]) [µg/mL]	MIC (Enterococcus faecalis) [µg/mL]	MIC (Staphylococcus aureus [2]) [µg/mL]	MIC (Staphylococcus aureus [3]) [µg/mL]	MIC (Staphylococcus aureus [4]) [µg/mL]	MIC (Klebsiella pneumoniae) [µg/mL]	MIC (Escherichia coli [5]) [µg/mL]	MIC (Pseudomonas aeruginosa [6]) [µg/mL]	MIC (Acinetobacter baumannii) [µg/mL]	MIC (Pseudomonas aeruginosa [7]) [µg/mL]	MIC (Escherichia coli [8]) [µg/mL]	HC50 at 2 h [9] [µg/mL]
O=C(/C(=C/c1ccccc1Cl)n1cnc2cc(Cl)ccc2c1=O)c1nccs1	2 (≈ 4.67 µM)	1 (≈ 2.33 µM)	16 (≈ 37.4 µM)	1 (≈ 2.33 µM)	4 (≈ 9.34 µM)	4 (≈ 9.34 µM)	8 (≈ 18.7 µM)	2 (≈ 4.67 µM)	512 (≈ 1200 µM)	2 (≈ 4.67 µM)	2 (≈ 4.67 µM)	195
CCn1cc(/C=C(/C(=O)c2nccs2)n2cnc3cc(Cl)ccc3c2=O)c2ccccc21	512 (≈ 1110 µM)	512 (≈ 1110 µM)	512 (≈ 1110 µM)	512 (≈ 1110 µM)	1 (≈ 2.17 µM)	512 (≈ 1110 µM)	512 (≈ 1110 µM)	128 (≈ 278 µM)	128 (≈ 278 µM)	32 (≈ 69.4 µM)	512 (≈ 1110 µM)	> 250
COc1ccc(/C=C(/C(=O)c2nccs2)n2cnc3cc(Cl)ccc3c2=O)cc1	8 (≈ 18.9 µM)	32 (≈ 75.5 µM)	64 (≈ 151 µM)	4 (≈ 9.44 µM)	4 (≈ 9.44 µM)	512 (≈ 1210 µM)	32 (≈ 75.5 µM)	32 (≈ 75.5 µM)	512 (≈ 1210 µM)	32 (≈ 75.5 µM)	32 (≈ 75.5 µM)	245
O=C(/C(=C/c1ccc(F)cc1F)n1cnc2cc(Cl)ccc2c1=O)c1nccs1	8 (≈ 18.6 µM)	8 (≈ 18.6 µM)	8 (≈ 18.6 µM)	2 (≈ 4.65 µM)	8 (≈ 18.6 µM)	8 (≈ 18.6 µM)	8 (≈ 18.6 µM)	8 (≈ 18.6 µM)	2 (≈ 4.65 µM)	4 (≈ 9.31 µM)	2 (≈ 4.65 µM)	203
O=C(/C(=C/c1cccc(Cl)c1)n1cnc2cc(Cl)ccc2c1=O)c1nccs1	8 (≈ 18.7 µM)	128 (≈ 299 µM)	32 (≈ 74.7 µM)	8 (≈ 18.7 µM)	8 (≈ 18.7 µM)	128 (≈ 299 µM)	4 (≈ 9.34 µM)	32 (≈ 74.7 µM)	1 (≈ 2.33 µM)	4 (≈ 9.34 µM)	4 (≈ 9.34 µM)	> 250
O=C(/C(=C/c1ccco1)n1cnc2cc(Cl)ccc2c1=O)c1nccs1	32 (≈ 83.4 µM)	8 (≈ 20.8 µM)	64 (≈ 167 µM)	8 (≈ 20.8 µM)	8 (≈ 20.8 µM)	64 (≈ 167 µM)	128 (≈ 333 µM)	64 (≈ 167 µM)	16 (≈ 41.7 µM)	32 (≈ 83.4 µM)	16 (≈ 41.7 µM)	> 250
O=C(/C(=C/c1nccs1)n1cnc2cc(Cl)ccc2c1=O)c1nccs1	4 (≈ 9.98 µM)	1 (≈ 2.49 µM)	2 (≈ 4.99 µM)	2 (≈ 4.99 µM)	2 (≈ 4.99 µM)	4 (≈ 9.98 µM)	16 (≈ 39.9 µM)	16 (≈ 39.9 µM)	16 (≈ 39.9 µM)	4 (≈ 9.98 µM)	4 (≈ 9.98 µM)	115
O=C(/C(=C/c1ccc([N+](=O)[O-])cc1)n1cnc2cc(Cl)ccc2c1=O)c1nccs1	8 (≈ 18.2 µM)	2 (≈ 4.56 µM)	2 (≈ 4.56 µM)	4 (≈ 9.11 µM)	2 (≈ 4.56 µM)	16 (≈ 36.5 µM)	64 (≈ 146 µM)	4 (≈ 9.11 µM)	4 (≈ 9.11 µM)	4 (≈ 9.11 µM)	2 (≈ 4.56 µM)	> 250
N#Cc1ccc(/C=C(/C(=O)c2nccs2)n2cnc3cc(Cl)ccc3c2=O)cc1	4 (≈ 9.55 µM)	1 (≈ 2.39 µM)	32 (≈ 76.4 µM)	1 (≈ 2.39 µM)	1 (≈ 2.39 µM)	8 (≈ 19.1 µM)	16 (≈ 38.2 µM)	2 (≈ 4.77 µM)	512 (≈ 1220 µM)	2 (≈ 4.77 µM)	4 (≈ 9.55 µM)	> 250
O=C(/C(=C/c1ccc(Cl)cc1)n1cnc2cc(Cl)ccc2c1=O)c1nccs1	8 (≈ 18.7 µM)	4 (≈ 9.34 µM)	16 (≈ 37.4 µM)	4 (≈ 9.34 µM)	4 (≈ 9.34 µM)	64 (≈ 149 µM)	16 (≈ 37.4 µM)	2 (≈ 4.67 µM)	256 (≈ 598 µM)	1 (≈ 2.33 µM)	2 (≈ 4.67 µM)	> 250
O=C(/C(=C/c1cccs1)n1cnc2cc(Cl)ccc2c1=O)c1nccs1	512 (≈ 1280 µM)	512 (≈ 1280 µM)	16 (≈ 40 µM)	16 (≈ 40 µM)	16 (≈ 40 µM)	32 (≈ 80 µM)	512 (≈ 1280 µM)	64 (≈ 160 µM)	512 (≈ 1280 µM)	64 (≈ 160 µM)	32 (≈ 80 µM)	211
Cc1ccc(/C=C(/C(=O)c2nccs2)n2cnc3cc(Cl)ccc3c2=O)c(C)c1	512 (≈ 1210 µM)	512 (≈ 1210 µM)	512 (≈ 1210 µM)	512 (≈ 1210 µM)	4 (≈ 9.48 µM)	512 (≈ 1210 µM)	512 (≈ 1210 µM)	64 (≈ 152 µM)	128 (≈ 303 µM)	64 (≈ 152 µM)	64 (≈ 152 µM)	203
O=C(/C(=C/c1ccc[nH]1)n1cnc2cc(Cl)ccc2c1=O)c1nccs1	512 (≈ 1340 µM)	512 (≈ 1340 µM)	512 (≈ 1340 µM)	512 (≈ 1340 µM)	2 (≈ 5.22 µM)	256 (≈ 669 µM)	256 (≈ 669 µM)	256 (≈ 669 µM)	64 (≈ 167 µM)	256 (≈ 669 µM)	64 (≈ 167 µM)	203
